Data on 73 compounds can be found in PubChem BioAssay AID651579 (Sanford-Burnham Center for Chemical Genomics, 2012).

The source made the active and inactive calls. How the calls were made is not given here.

This test concerns C. elegans hsp-16.2 reporter, heat-shock counterscreen. Put plainly: inhibitors of heat-induced hsp-16.2 expression – whole organism, C. elegans, counter-screen for SKN-1 inhibitor project, dose response (AID 651579).
In the case of `CCOc1cc(CNC2CCCC2)cc(Cl)c1OCc1ccc(F)cc1`, the IC50 is > 64 µM (inactive).
For `Cc1ccc(CSc2nnc(-c3ccco3)o2)cc1`, the IC50 is 30.6 µM.
As to `O=C(Nc1nccs1)c1ccc2ccccc2c1`, the IC50 is > 64 µM (inactive).
Consider `COc1cc(CNC(C)c2ccccc2)cc(Br)c1OCc1ccc(F)cc1` (stereo not drawn), for which the IC50 was > 64 µM (inactive).
Take `O=C(Nc1nc(-c2ccc(Cl)s2)cs1)c1cccs1`: the IC50 is > 64 µM (inactive).
The figure for `C(=C\c1nc(-c2ccncc2)no1)/c1ccccc1` is > 64 µM (inactive); for `O=C(c1cccs1)c1ccc(-c2cccs2)s1` it is > 64 µM (inactive); for `Brc1ccc2oc(-c3ccn[nH]3)cc2c1` it is > 64 µM (inactive).
The figure for `Clc1ccc(C=Cc2ccccn2)c(Cl)c1` is 22.9 µM; for `FCCCOc1ccc(-c2nccc(-c3ccccn3)n2)cc1` it is > 64 µM (inactive).
The figure for `CCCCOc1ccc(C(=O)OC2CC(C)N(C)CC2C)cc1` (stereo not drawn) is > 64 µM (inactive); for `Brc1ccc(CSc2nnc(-c3cccnc3)o2)cc1` it is 45.4 µM.
In the case of `Fc1ccc(-c2cnc(-c3cccs3)o2)cc1`, the IC50 is > 64 µM (inactive).
The figure for `O=C(/C=C/c1ccc(Br)cc1)c1ccc(NC2=NCCCS2)cc1` is > 64 µM (inactive).
The same measure for `O=C(Nc1ccc(CN2CCOCC2)cc1)c1cc2ccccc2o1`: 4.25 µM; for `CSc1ccc(-c2cc(=O)c3ccccc3o2)cc1`: > 64 µM (inactive).
The figure for `O=[N+]([O-])c1ccc2cn(-c3ccccc3)nc2c1` is > 64 µM (inactive); for `c1ccc(-c2csc(-c3ccncc3)n2)cc1` it is > 64 µM (inactive); for `Brc1ccc2nc(N3CCCC3)sc2c1` it is > 64 µM (inactive).
`Fc1ccc(-c2csc(Nc3ccccn3)n2)cc1`: the IC50 was > 64 µM (inactive).
`O=C(Nc1nccs1)c1ccc2ccccc2n1`: the IC50 is > 64 µM (inactive).
The same measure for `CN(C)C(CNC(=O)CCc1nc2cc(Cl)ccc2n(Cc2ccccc2)c1=O)c1ccccc1` (stereo not drawn): > 64 µM (inactive); for `O=C(/C=C/c1cccs1)c1ccc(Br)cc1`: > 64 µM (inactive).
The figure for `Clc1ccc(Cn2nnc(-c3ccccc3)n2)cc1` is > 64 µM (inactive).
As for `Clc1ccccc1-c1nnc(-c2ccccc2Cl)o1`, the IC50 was > 64 µM (inactive).
As to `Cc1c(N2C(=O)/C(=C\c3ccc(N(C)C)cc3)N(C)C2=S)c(=O)n(-c2ccccc2)n1C`, the IC50 is > 64 µM (inactive).
The same measure for `Clc1ccc(OCCCc2nc(-c3ccncc3)no2)c(Cl)c1`: > 64 µM (inactive).
Consider `Cn1c(=O)c2c(-c3ccccc3)n(-c3ccc(N)cc3)cc2n(C)c1=O`, for which the IC50 was 3.62 µM.
With `Fc1ccc(-c2csc(-c3ccncc3)n2)cc1`, the IC50 was > 64 µM (inactive).
The same measure for `CCOC(=O)Nc1nc(-c2ccc(F)cc2F)cs1`: 47.7 µM.
The figure for `C(=C\c1nnc(-c2cccs2)o1)/c1ccccc1` is > 64 µM (inactive); for `Fc1ccc(-n2nnc(-c3cccnc3Cl)n2)cc1` it is > 64 µM (inactive); for `Brc1ccc(-c2nc(-c3ccccc3)no2)o1` it is > 64 µM (inactive).
The same measure for `Cc1ccccc1-c1noc(-c2cccs2)n1`: > 64 µM (inactive).
In the case of `Clc1ccc2nc(-c3ccc(Br)s3)cn2c1`, the IC50 was 15.9 µM.
Turning to `CCc1ccc(C(=O)Nc2ccc3nc(C)ccc3c2)cc1`, the IC50 is > 64 µM (inactive).
The figure for `COc1ccc2c(c1)OC/C(=C/c1cccs1)C2=O` is > 64 µM (inactive); for `O=C(Nc1nc(-c2ccc(Cl)s2)cs1)c1ccco1` it is > 64 µM (inactive); for `O=C(Nc1ccc(SC(F)F)cc1)c1ccccc1F` it is > 64 µM (inactive).
The same measure for `O=C(/C=C/Nc1ccccc1F)c1cccs1`: > 64 µM (inactive); for `COc1ccc(C(=O)Nc2nc(-c3cccs3)cs2)cc1`: > 64 µM (inactive); for `Clc1ccc(OCc2cnc(Cl)s2)cc1`: > 64 µM (inactive).
Regarding `CSc1cccc(NC(=O)c2cccc3cccnc23)c1`, the IC50 was 46.3 µM.
`O=C(/C=C/Nc1ccc(F)cc1F)c1cccs1`: the IC50 was 21.4 µM.
On to `CCN(CC)c1ccc(/C=C2/C(=O)c3ccc(C(=O)O)cc3C2=O)cc1`, for which the IC50 is > 64 µM (inactive).
Turning to `Clc1ccc(-c2nnc(-c3ccccc3)o2)c(Cl)c1`, the IC50 was > 64 µM (inactive).
The same measure for `CCOc1cc(CNCCSc2nnnn2C)cc(Br)c1OCc1ccc(F)cc1`: > 64 µM (inactive).
Turning to `c1ccc(Nc2nc(-c3cccs3)cs2)nc1`, the IC50 is > 64 µM (inactive).
`O=[N+]([O-])c1ccc(COc2ccc(CN3CCCC3)cc2)cc1`: the IC50 is > 64 µM (inactive).
The figure for `Cc1ccc(Nc2nc(-c3cccs3)cs2)nc1` is 13.6 µM; for `Cc1ccc(N=C/C(C(=O)C(F)(F)F)=C(\O)c2ccco2)cc1Cl` it is 37.7 µM.
Turning to `Cc1ccc(-c2noc(-c3cccs3)n2)cc1`, the IC50 is > 64 µM (inactive).
The figure for `O=C(C=Cc1ccccc1)CC(c1ccccc1)N1CCOCC1` (stereo not drawn) is > 64 µM (inactive); for `O=C(/C=C/Nc1ccc(F)c(F)c1)c1cccs1` it is > 64 µM (inactive).
The same measure for `CC(C)(C)N=C1NN=C(c2ccc(Cl)cc2)CS1`: > 64 µM (inactive).
The same measure for `CCN(CC)c1ccc(/C=C2\C(=O)c3ccc(C(=O)O)cc3C2=O)cc1`: > 64 µM (inactive); for `CC1=NN(c2ccccc2)C(=O)/C1=C\C=C1/N(C)c2ccccc2C1(C)C`: > 64 µM (inactive).
Take `Clc1ccccc1-c1nc(-c2ccncc2)no1`: the IC50 is > 64 µM (inactive).
For `Fc1ccc(CSc2ncnc3ccccc23)cc1`, the IC50 is > 64 µM (inactive).
The figure for `Brc1ccc(-c2nnc(-c3ccco3)o2)cc1` is > 64 µM (inactive); for `Brc1ccc(CSc2nnc(-c3ccco3)o2)cc1` it is > 64 µM (inactive); for `Cc1ccc2nc(-c3ccc(NC(=S)NC4CC(C)(C)NC(C)(C)C4)cc3)sc2c1` it is > 64 µM (inactive).
As to `Fc1ccc(COc2ccc(-c3nnco3)cc2)cc1`, the IC50 is > 64 µM (inactive).
On to `Clc1ccc(C=Cc2ccccn2)cc1`, for which the IC50 is > 64 µM (inactive).
As to `O=[N+]([O-])c1ccc2nc(-c3ccccc3)oc2c1`, the IC50 is > 64 µM (inactive).
The same measure for `c1ccc(-c2csc(Nc3ccccn3)n2)cc1`: > 64 µM (inactive); for `CC(C)c1ccc(C(=O)Nc2ccc(CN3CCOCC3)cc2)cc1`: > 64 µM (inactive).
As for `Clc1ccsc1-c1ccc2ccccc2n1`, the IC50 is > 64 µM (inactive).
The same measure for `CC/C(=C\c1ccc(Cl)cc1)c1ccncc1`: > 64 µM (inactive); for `O=C(Nc1nc2c(ccc3ccccc32)s1)c1ccco1`: > 64 µM (inactive).
Consider `Clc1ccc(C#Cc2cccnc2)cc1`, for which the IC50 was 2.57 µM.
The same measure for `CN(C)CC(O)c1ccc(C=Cc2ccc(Cl)cc2)cc1` (stereo not drawn): > 64 µM (inactive).
The figure for `O=C(C=Cc1cccs1)c1ccc(Cl)s1` is > 64 µM (inactive).
